Measured values published in PubChem BioAssay AID463199 (Broad Institute, 2010).
Calls of active or inactive are those of the source.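 Rule for the calls: active = AC50, the dose giving half-maximal effect, exceeds a fixed cutoff for a compound that rescues yeast growth under heat; inactive = the rest, inconclusive results apart.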

System: S. cerevisiae Burl-1 ts mutant growth, BacTiter-Glo, 38.5C 24 h
Experiment: growth induction of Burl-1 ts yeast mutant, dose response, counter-screen for SUMOylation pathway inhibitor project, whole organism, S. cerevisiae, luminescence (AID 463199)

SMILES	AC50
CCC(c1nnnn1C1CCCC1)N1CCN(c2cccc(OC)c2)CC1 (stereo not given)	> 21 µM (inactive)
COC(=O)c1ccc(/C=N/NC(=O)C(=O)NCC2CCCO2)cc1 (stereo not given)	> 42 µM (inactive)
CN(C)S(=O)(=O)N1CCc2ccccc2C1	> 42 µM (inactive)
Cc1nc(N/N=C\c2ccc3c(c2)OCO3)sc1C	> 42 µM (inactive)
Cc1ccc2nc(SCC(=O)Nc3cccc(S(N)(=O)=O)c3)[nH]c2c1	> 42 µM (inactive)
CN/C(=C/[N+](=O)[O-])NCCSCc1ccc(CN(C)C)o1	> 42 µM (inactive)
COc1cc(C(=O)OCC(=O)NCc2ccccc2)cc(NC(=O)c2ccco2)c1OC	> 42 µM (inactive)
Cn1c(CCN2CCOCC2)nc2cc(NC(=O)COc3ccccc3)ccc21	> 42 µM (inactive)
O=C(COc1ccccc1)Nc1cccc(-c2nnc(-c3ccccc3)o2)c1	> 42 µM (inactive)
COc1ccc2c(c1)[C@@]13CCC=C[C@H]1[C@@H](C2)NCC3	> 42 µM (inactive)
CC1CN(C(=O)c2cc([N+](=O)[O-])cc([N+](=O)[O-])c2)CC(C)O1 (stereo not given)	> 42 µM (inactive)
Cc1ccc(N=c2ssnc2Cl)cc1	> 42 µM (inactive)
CC(=O)Nc1cccc(OCC(O)Cn2c(C)nc3ccccc32)c1 (stereo not given)	> 42 µM (inactive)
Cc1cccc(NS(=O)(=O)c2ccc3[nH]c(=O)cc(C(=O)O)c3c2)c1	> 21 µM (inactive)
O=[N+]([O-])c1cncc([N+](=O)[O-])c1Nc1ccccc1Cl	> 42 µM (inactive)
C[N+](C)(C)CC(=O)Nc1ccc(Cl)cc1C(=O)c1ccccc1	> 42 µM (inactive)
COc1cc(CN2CCCC(CO)(Cc3cccc(Cl)c3)C2)cc2c1OCO2 (stereo not given)	> 42 µM (inactive)
O=C(NCc1ccccc1Cl)C(=O)NCC1CCCN1S(=O)(=O)c1cccs1 (stereo not given)	> 42 µM (inactive)
CC1CN(S(=O)(=O)c2cccc(C(=O)N=c3sccn3C)c2)CC(C)O1 (stereo not given)	> 42 µM (inactive)
COc1ccc(NC2CCCN(C(=O)c3csc(C)n3)C2)cc1 (stereo not given)	> 42 µM (inactive)
CCC1=Nc2cc(C(=O)NCc3ccco3)ccc2Sc2ccccc21	> 42 µM (inactive)
CCN(CC)c1ccc2c(C)c(CN3CCOCC3)c(=O)oc2c1	> 42 µM (inactive)
CN(C)C(=O)c1cc(C(=O)c2ccc(C(F)(F)F)cc2F)c[nH]1	> 42 µM (inactive)
c1ccc2c(C[C@@H]3CNCCN3CCCCC3CCCCC3)cccc2c1	> 42 µM (inactive)
COc1ccc2c(c1)OC[C@H]1[C@H]2N2C(=O)c3ccccc3NC(=O)[C@@]2(C)[C@H]1c1ccccc1	> 42 µM (inactive)

SMILES	AC50
O=c1c2ccccc2nc(COc2ccccc2)n1/N=C/c1cn[nH]c1-c1ccccc1	> 42 µM (inactive)
C[C@@]12C(=O)Nc3cc(F)ccc3C(=O)N1[C@H]1c3ccccc3OC[C@@H]1[C@@H]2c1ccccc1	> 42 µM (inactive)
COc1cccc(C(=O)NCc2ccc(-c3nc4ccccc4s3)cc2)c1	> 42 µM (inactive)
Cc1ccc(-c2csc(C3=C(O)CN(NC(=O)c4ccco4)C3=N)n2)cc1	> 42 µM (inactive)
O=C(c1ccc2c(=O)n(Cc3ccccc3Cl)c(=S)[nH]c2c1)N1CCOCC1	> 42 µM (inactive)
CCN(CC)S(=O)(=O)c1cc(NC(=O)COC(=O)CCc2nc3ccccc3s2)ccc1C	> 42 µM (inactive)
O=C(Nc1ccccn1)c1ccc(CN(c2ccccc2)S(=O)(=O)c2ccccc2)cc1	> 42 µM (inactive)
CNC(=O)c1ccccc1S(=O)c1ccccc1COC(C)=O (stereo not given)	> 42 µM (inactive)
CC(=O)NCCc1nc2cc(NC(=O)c3ccc(F)cc3)ccc2n1C	> 42 µM (inactive)
Fc1ccccc1-n1cc(-c2ccccc2)[nH]c1=S	> 42 µM (inactive)
Cc1ccc(-c2csc3ncn(CC(=O)N4CCOCC4)c(=O)c23)cc1	> 42 µM (inactive)
Cc1cccc(C)c1NC(=O)C1(N(Cc2ccco2)C(=O)CC2NC(=O)NC2=O)CCCCC1 (stereo not given)	> 42 µM (inactive)
CCOC(=O)C1ON2CCCCC2C1(O)C(F)(F)F (stereo not given)	> 42 µM (inactive)
Nn1c(SCc2cc([N+](=O)[O-])cc3c2OCOC3)nnc1-c1ccccn1	> 42 µM (inactive)
CC1=Nc2ccc(C)cc2N(Cc2ccccc2)C(=O)C1	> 42 µM (inactive)
CC1CCN(CCCCOc2cccc(Br)c2)CC1	> 42 µM (inactive)
Cc1cccc(N2CN=c3s/c(=C\c4ccccn4)c(=O)n3C2)c1	> 42 µM (inactive)
Cc1ccc(-n2nc3c(=O)n(CCCC(=O)NCc4cccc(F)c4)nc(C)c3c2C)cc1	> 42 µM (inactive)
Cc1cc(C)cc(NC(=O)C2CCCN(S(=O)(=O)c3ccc4[nH]c(=O)ccc4c3)C2)c1 (stereo not given)	> 42 µM (inactive)
O=C(CCC(=O)OC(C(=O)c1ccccc1)c1ccccc1)Nc1ccccc1 (stereo not given)	> 21 µM (inactive)
Cc1ccc(C)c(-n2nnnc2SCC(=O)Nc2c(C)n(C)n(-c3ccccc3)c2=O)c1	> 42 µM (inactive)
COc1ccccc1CNC(=O)CCC(=O)Nc1nnc(C(C)C)s1	> 42 µM (inactive)
CC1CN=C(NCc2ccccc2)S1 (stereo not given)	> 42 µM (inactive)
Cc1cccc(NC(=O)CSCC(=O)N2CCCc3ccccc32)c1	> 42 µM (inactive)
CCOC(=O)C1=C(C)NC(C)=C(C(=O)OCC)C1C(=O)OC1CCOC1=O (stereo not given)	> 42 µM (inactive)

SMILES	AC50
N#CCSc1nc2c(c(C3CC=CCC3)c1C#N)CCC2 (stereo not given)	> 42 µM (inactive)
O=C(c1ccc(CS(=O)(=O)c2ccccc2)o1)N1CCOCC1	> 42 µM (inactive)
CCCCC1=CC2=CC(=O)C(C)(OC(=O)CC)C(=O)C2=CN1CCCOC(C)C (stereo not given)	> 42 µM (inactive)
CC(=O)c1c(N)[nH]c(-c2ccccc2)nc1=S	> 42 µM (inactive)
CCC1CCCCN1CCCNC(=O)C1CCC(CNS(=O)(=O)c2c(C)cc(C)cc2C)CC1 (stereo not given)	> 42 µM (inactive)
CC1(OC(=O)C2CCCC2)C(=O)C=C2C=C(c3ccsc3)OC=C2C1=O (stereo not given)	> 42 µM (inactive)
COc1cccc(Nc2nc(C)nc3c2oc2ccccc23)c1	> 42 µM (inactive)
Cc1ccc(NC(=O)COC(=O)c2csc3c2CCC(C)C3)cc1S(=O)(=O)N1CCCCC1 (stereo not given)	> 42 µM (inactive)
Cc1nnc(N=c2ssnc2Cl)o1	> 42 µM (inactive)
Cn1c(=NC(=O)COc2ccccc2)sc2cc(F)cc(F)c21	> 42 µM (inactive)
COc1ccc(OC)c(Cc2nnc(CCC(=O)NCc3ccsc3)o2)c1	> 42 µM (inactive)
Fc1cccc(F)c1-c1nc(-c2ccncc2)no1	> 42 µM (inactive)
O=C1OC(Cc2ccccn2)C(O)=C1C1=NCCCN1 (stereo not given)	> 42 µM (inactive)
COc1ccc(N2CC(C(=O)N3CCc4ccccc43)CC2=O)cc1 (stereo not given)	> 42 µM (inactive)
CCCCNC(=O)c1ccccc1NC(=O)C1=C(C)OCCS1	11.3 µM
Cc1ccc2nc(/C(C#N)=C\c3cc(O)ccc3[N+](=O)[O-])[nH]c2c1	> 42 µM (inactive)
CS(=O)(=O)N1CCCC(C(=O)NCc2ccco2)C1 (stereo not given)	> 42 µM (inactive)
COCCN(C(=O)CSc1nnc(-c2ccc(C)cc2)n1N)c1c(N)n(Cc2ccccc2)c(=O)[nH]c1=O	> 42 µM (inactive)
CC1=C(C(=O)OCc2ccccc2)C(c2cccc(F)c2)NC(=O)N1 (stereo not given)	> 42 µM (inactive)
CCc1ccccc1NC(=O)N[C@@H](C)C(=O)OC	> 42 µM (inactive)
CCOC(=O)c1cnc2c(OC)cccc2c1N1CCN(c2ccccc2OC)CC1	> 42 µM (inactive)
O=c1cnc2ccccc2n1Cc1ccccc1C(F)(F)F	> 42 µM (inactive)
COc1ccc(NC2CCCN(C(=O)CCc3scnc3C)C2)cc1 (stereo not given)	> 42 µM (inactive)
CC1CCC(C(C)C)C(OC(=O)COC(=O)c2cccn2C)C1 (stereo not given)	> 42 µM (inactive)
CCOC(=O)CNC(=O)c1c(C)nn(C)c1Cl	> 42 µM (inactive)

SMILES	AC50
COc1ccccc1CC(=O)N1CCOCC1	> 42 µM (inactive)
CSc1ncc2ncn(C3OC(CO)C(O)C3O)c2n1 (stereo not given)	> 42 µM (inactive)
COc1nc(-c2ccccc2)ccc1-c1noc(-c2ccccc2)n1	> 42 µM (inactive)
CC(C)C1OC2(C)OC(=N)C1(C#N)C(C#N)(C#N)C2c1ccccc1 (stereo not given)	> 42 µM (inactive)
CCOP(=O)(Cc1cc(C(=O)CC)c(C)o1)OCC	> 42 µM (inactive)
O=C(Nc1ccc2oc(-c3ccccc3F)nc2c1)c1ncn[nH]1	> 42 µM (inactive)
Cc1ccc(S(=O)(=O)N2CCCC2C(=O)NCCc2ccccc2)cc1 (stereo not given)	> 42 µM (inactive)
O=C(O)CCc1ccc(-c2ccccc2)n1NC(=O)c1cccs1	> 42 µM (inactive)
[N-]=[N+]=NCCN1CCC(O)CCC1=O (stereo not given)	> 42 µM (inactive)
CCOc1ccc(NC(=O)CC2C(=O)N(c3ccccc3)C(=S)N2Cc2ccccn2)cc1 (stereo not given)	> 42 µM (inactive)
c1ccc(N2CCN(C3CCSC3)CC2)cc1 (stereo not given)	> 42 µM (inactive)
N#CC1=C(N)Oc2c(ccc3ccccc23)C1c1cccs1 (stereo not given)	> 42 µM (inactive)
O=C1N=C(N2CCOCC2)S/C1=C\c1cccnc1	> 42 µM (inactive)
COc1cc(CNCCN2CCOCC2)ccc1OCc1ccccc1Cl	> 42 µM (inactive)
Cc1nc2ccc(S(=O)(=O)NC(CC(C)C)C(=O)O)cc2s1 (stereo not given)	> 42 µM (inactive)
COc1cccc(N=Nc2c(=O)[nH]n3c(=O)cc(C)[nH]c23)c1	> 42 µM (inactive)
O=C(C1CCN(C2CC(=O)N(c3cccc(Cl)c3)C2=O)CC1)N1CCCC1 (stereo not given)	> 42 µM (inactive)
COc1ccc(NC(=O)c2ccc(S(=O)(=O)N(C)c3ccccc3)cc2)cn1	> 42 µM (inactive)
Cc1cccc(Cn2c(C(=O)OC(C)C)cc3c2ccn3C)c1	> 42 µM (inactive)
C=C(C)Cc1c(C)c(C#N)c2[nH]c3ccccc3n2c1=O	> 42 µM (inactive)
CC(=O)N1CCCc2cc(S(=O)(=O)Nc3ccc(C)cc3C)ccc21	> 42 µM (inactive)
CCOc1ccc(NC(=O)Nc2ccc3nsnc3c2)cc1	> 42 µM (inactive)
CCCc1cc(=O)oc2c3c(c4c(c12)OC(C)(C)C=C4)OC(C)C(C)C3O (stereo not given)	> 42 µM (inactive)
COc1ccc(S(=O)(=O)n2nc(-c3ccc(Cl)cc3)cc2N)cc1OC	> 42 µM (inactive)
O=c1/c(=C/c2ccco2)sc2nc(-c3ccccc3Br)nn12	> 42 µM (inactive)
